# Test system: liver tissue inflammation
# Assay: Phase II clinical study: liver tissue inflammation grading
# Assay type: in vivo, human
# Conditions: after 52 weeks of treatment
# Protocol: This is a randomized, double-blind, placebo-controlled, multicenter, and dose-finding phase II clinical study with foundational treatment. In the clinical trial, three different dose test groups and a placebo control group were set on the basis of the entecavir capsule antiviral treatment, and the planned sample amount of each group was 60 cases, totaling 240 cases. The three dose test groups were 180 mg group, 270 mg group, and 360 mg group, respectively. The proportion of each test group to the control group was 1:1:1:1, and the cases were distributed randomly. […] Negative conversion rate of HBV DNA after treatment between the groups was compared using CMH-λ2 test or Fisher's exact probability method. • 2. Liver tissue elasticity reduction after treatment between the groups was compared using Kruskal-Wallis H test. • 3. […] The recovery rate of the liver function index after treatment between the groups was compared using CMH-λ2 test or Fisher's exact probability method, and the found values of each index between the groups were compared using variance analysis or Kruskal-Wallis H test.
smiles,measurement,setting,value
Cc1ccc(=O)n(-c2ccc(O)cc2)c1 [hydronidone],proportion of the subjects with the liver tissue inflammation ameliorated,180 mg group,21 (58.33%) n(%)
same,proportion of the subjects with the liver tissue inflammation ameliorated,270 mg group,20 (57.14%) n(%)
same,proportion of the subjects with the liver tissue inflammation ameliorated,360 mg group,19 (55.88%) n(%)

# Source: US20240261271A1, “APPLICATION OF HYDRONIDONE IN PREPARATION OF DRUG FOR TREATING OR PREVENTING CHRONIC HEPATITIS B WITH LIVER FIBROSIS” (priority 2021, published 2024)
